Here are results for one compound from US20210283198A1, “METHOD FOR TREATING AND/OR PREVENTING COCCIDIOSIS” (priority 2020, published 2021).

Marks after values point to notes of the source that are not given here. *1 amine or outer side, *2 acyl side, *3 side chain or, on linkers, in order; H or OH if unused. Where a SMILES comes first, the peptide text is derived from it. Bridges are numbered along the chain shown (N, C = ends). [ ]: non-standard residue; d: D form. X1 = CC(C)CCCCCCCCC[C@H](CC(=O)[*:1])O[*:2]

This test concerns Eimeria tenella oocyst. Briefly: In vitro sporulation of the coccidia oocyst in 2% K2Cr2O7. Type of test: cell-based. As to conditions: 100 ppm, 25° C., 10^4 oocysts/mL, mean ± SD (n = 3). Here is the method:
Intestinal samples from naturally infected broilers were obtained from poultry farms. Un-sporulated oocysts were obtained from the cecal contents of broilers at day 8 post-infection. Oocyst sporulation was conducted in an aqueous solution of 2% potassium dichromate (K2Cr2O7) with or without surfactin standard or the Bacillus licheniformis-fermented product-derived surfactin C-form for 72 h at 25° C. (10^4 oocysts/mL). Sporulated and non-sporulated oocysts were counted and the percentage of sporulation was estimated by counting the number of sporulated oocysts in a total of 100 oocysts by microscopic observation. Second-generation merozoites were collected from ceca at 110 h post-infection from chickens that had been inoculated with 1×10^5 sporulated oocysts per bird. The merozoites (10^4/mL) were treated with or without surfactin standard or the Bacillus licheniformis-fermented product-derived surfactin C-form for 1 h at 37° C. Three groups of merozoites were prepared, including: (1) a control group comprising 10^4/ml merozoites without surfactin; (2) an experimental group comprising 10^4/ml merozoites treated with 100 ppm surfactin standard; and (3) an experimental group comprising 10^4/ml merozoites treated with the 100 ppm Bacillus licheniformis-fermented product-derived surfactin C-form. After incubation, propidium iodide was added to each well and then stained at 37° C. for 30 min in the dark. The stained samples were examined under a confocal laser-scanning microscope (ZEISS LSM800, Jena, Germany). The percentage of death of merozoite was determined by counting the number of dead merozoite in a total of 100 merozoites. The Eimeria sporozoites from vaccine were treated with different surfacitn for 1 h at 37° C. (10^6 sporozoites/mL). The sporozoites were fixed with 2.5% glutaraldehyde in 50 mM potassium phosphate buffer (pH 6.8) overnight at 4° C., and then washed three times with 50 mM potassium phosphate buffer (pH 6.8). Dehydration was performed in different concentrations of ethanol (35-100%) for 10 mM each and the samples were dried in a critical point drier (CPD 030, Bal-Tec AG, Balzers, Liechtenstein). Specimens were coated under vacuum with gold:palladium (60:40) in a sputter coater (Bal-Tec AG, Balzers, Liechtenstein), and examined using a scanning electron microscope (JSM-6300, JEOL Ltd., Tokyo, JAPAN). […]

Regarding `CC(C)CCCCCCCCC[C@@H]1CC(=O)N[C@@H](CCC(=O)O)C(=O)N[C@@H](CC(C)C)C(=O)N[C@H](CC(C)C)C(=O)N[C@@H](C(C)C)C(=O)N[C@@H](CC(=O)O)C(=O)N[C@H](CC(C)C)C(=O)N[C@@H](CC(C)C)C(=O)O1` [surfactin standard, surfactin] (EL[dL]VD[dL]L; linker N-C via X1), the “Sporulation of the coccidia oocyst (%)” value reads like this: (12 h) 0%; (24 h) 0%; (48 h) 0^b %; (72 h) 0^b %.
